Assay results reported in patent US20230285512A1, “COMPOSITIONS AND METHODS FOR TREATING MYOCARDIAL INFARCTION AND ISCHEMIA” (priority 2022, published 2023).
“Also recorded” adds a separate entry of the source.

System: HL-1 cardiomyocytes
Experiment: In vitro hypoxia assay of HL-1 cardiomyocytes, live/dead
Type: cell-based
Protocol: To examine potential functional roles of these candidates, particularly on cellular apoptosis, the study next used an in vitro hypoxia assay of HL-1 CMs, in which cells were exposed to low oxygen (1%02) for 6 hours prior to treatment with recombinant forms of these proteins.
HL-1 cardiomyocytes (Sigma, cat. SCC065) were maintained in growth media consisting of 10% FBS in Claycomb Media (Sigma, cat. 51800C) supplemented with 10 mM norepinephrine (Sigma, cat. A0937) and […] L-glutamine (Gibco, cat. 25030081). Primary cardiac fibroblasts were isolated from Col1a1GFP/+ mice 2 months of age. Mice were injected with heparin prior to sacrifice and the heart collected. The tissue was then cut into 1-2 mm pieces and digested with Liberase Blendzyme TH and TM (Roche, cat. LIBTM-RO) in Hank's Balanced Salt Solution (HBSS) (Gibco, cat. 1417507) supplemented with DNAse I and polaxamer (10 mg/ml, Sigma, cat. 16758) in 37° C. for 1 h. […]
Fluorescent images were acquired with Leica fluorescence inverted microscope DMI6000B equipped with an EL6000 light source. […] Image quantification was performed using Imager s “threshold” and “analyze particles” functions. Assessment of live/dead was determined as the number of DAPI+ cells/HPF. EdU and pHH3 quantification were recorded as the number of EdU+ or pHH3+ nuclei over the total number of DAPI.

thymosin β4: Thymosin family protein Tmsb4x, recombinant form; human reference NP_066932 in Table 1
number of DAPI+ (dead) cells per field (1% O2 for 6 hours prior to treatment with recombinant protein): reduced; also recorded: protective role | cellular viability / toxicity (high doses (500 nM)): cellular toxicity
